According to ChEMBL document CHEMBL1201862, “PubChem BioAssay data set” (2004):
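Where inhibition never reached the appropriate level, the endpoint shown equals the highest concentration tested. Otherwise, values were interpolated linearly from a five-concentration, 48-hour dose response in 96-well plates. GI50 marks 50% less growth.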 Active and inactive are the calls of the source. Cut-off read from the data, not from the text of the source: active = GI50 up to about 1.1 µM and inactive = higher.

Tests used:
Assay in all cases: inhibition of tumour cell growth, NCI panel, 48 h
[1] = test system: A498
[2] = test system: ACHN
[3] = test system: TK-10
[4] = test system: UO-31
[5] = test system: SN12C
[6] = test system: RPMI-8226
[7] = test system: SK-OV-3
[8] = test system: Malme-3M
[9] = test system: OVCAR-3
[10] = test system: COLO 205
[11] = test system: HOP-92
[12] = test system: UACC-257
[13] = test system: SNB-19
[14] = test system: HCT-15
[15] = test system: HT-29

Compound | GI50 [1] | GI50 [2] | GI50 [3] | GI50 [4] | GI50 [5] | GI50 [6] | GI50 [7] | GI50 [8] | GI50 [9] | GI50 [10] | GI50 [11] | GI50 [12] | GI50 [13] | GI50 [14] [µM] | GI50 [15]
Cc1nc(Nc2ccccc2)sc1C(=O)NNC(N)=O | 46.9 µM (inactive) | > 100 µM (inactive) | > 100 µM (inactive) | > 100 µM (inactive) | > 100 µM (inactive) | > 100 µM (inactive) | > 100 µM (inactive) | > 100 µM (inactive) | > 100 µM (inactive) | > 100 µM (inactive) | 64.4 µM (inactive) | 27.4 µM (inactive) | > 100 µM (inactive) | – | –
CC(=O)Nc1ccc(C(=O)NN2C(=O)C(Cl)C2c2cc(Br)cc(Br)c2O)cc1 (stereo unspecified) | > 100 µM (inactive) | > 100 µM (inactive) | – | > 100 µM (inactive) | > 100 µM (inactive) | > 100 µM (inactive) | > 100 µM (inactive) | > 100 µM (inactive) | > 100 µM (inactive) | > 100 µM (inactive) | > 100 µM (inactive) | > 100 µM (inactive) | > 100 µM (inactive) | > 100 | –
COC(c1cccc(C(O)(C(F)(F)F)C(F)(F)F)c1)(C(F)(F)F)C(F)(F)F | 20.1 µM (inactive) | 15.8 µM (inactive) | 22.1 µM (inactive) | 19.9 µM (inactive) | 18.3 µM (inactive) | – | 20.1 µM (inactive) | 19.4 µM (inactive) | 23.4 µM (inactive) | 19.3 µM (inactive) | – | 27.1 µM (inactive) | 19.4 µM (inactive) | 19.1 | 17.5 µM (inactive)
Cn1c(=O)nc2n(-c3ccc(Br)cc3)c3ccccc3nc-2c1=O | 11.2 µM (inactive) | 0.543 µM (active) | 8.93 µM (inactive) | 10.4 µM (inactive) | 4.97 µM (inactive) | 3.16 µM (inactive) | 27.8 µM (inactive) | 3.61 µM (inactive) | 2.48 µM (inactive) | 2.64 µM (inactive) | – | 2.69 µM (inactive) | 2.9 µM (inactive) | 3.55 | 2.29 µM (inactive)
COc1cccc(NC(=O)CC(=O)n2nc(C)c(/N=N/c3ccccc3)c2C)c1 | 76 µM (inactive) | > 100 µM (inactive) | 85.7 µM (inactive) | 65.6 µM (inactive) | > 100 µM (inactive) | > 100 µM (inactive) | > 100 µM (inactive) | > 100 µM (inactive) | > 100 µM (inactive) | > 100 µM (inactive) | > 100 µM (inactive) | > 100 µM (inactive) | > 100 µM (inactive) | – | > 100 µM (inactive)
COC(=O)c1ccc(/N=N/N(C)CO)cc1 | 51.8 µM (inactive) | 80.2 µM (inactive) | > 100 µM (inactive) | > 100 µM (inactive) | > 100 µM (inactive) | > 100 µM (inactive) | 40.5 µM (inactive) | > 100 µM (inactive) | 91.4 µM (inactive) | > 100 µM (inactive) | – | > 100 µM (inactive) | 86.5 µM (inactive) | > 100 | > 100 µM (inactive)
O=C(CCc1nnc(S)[nH]1)Nc1cccc(C(F)(F)F)c1 | > 100 µM (inactive) | > 100 µM (inactive) | > 100 µM (inactive) | > 100 µM (inactive) | > 100 µM (inactive) | > 100 µM (inactive) | > 100 µM (inactive) | > 100 µM (inactive) | > 100 µM (inactive) | 80 µM (inactive) | > 100 µM (inactive) | > 100 µM (inactive) | > 100 µM (inactive) | > 100 | > 100 µM (inactive)
CC(O)/C=C/C(CCC(C)CO)C(C)C (stereo unspecified) | > 100 µM (inactive) | > 100 µM (inactive) | > 100 µM (inactive) | > 100 µM (inactive) | > 100 µM (inactive) | > 100 µM (inactive) | > 100 µM (inactive) | > 100 µM (inactive) | > 100 µM (inactive) | > 100 µM (inactive) | > 100 µM (inactive) | > 100 µM (inactive) | > 100 µM (inactive) | > 100 | > 100 µM (inactive)
O=C1C(Cl)N(c2cccc([N+](=O)[O-])c2)C1c1c[nH]c2ccccc12 (stereo unspecified) | – | – | 20.4 µM (inactive) | 17.5 µM (inactive) | 28.6 µM (inactive) | 16.9 µM (inactive) | 11.1 µM (inactive) | 2.36 µM (inactive) | 20.5 µM (inactive) | 22.5 µM (inactive) | 19 µM (inactive) | 20.7 µM (inactive) | 23.9 µM (inactive) | – | 17.1 µM (inactive)
CCCCc1c2c(nc3c1CCCC3=O)CCCC2 | – | > 100 µM (inactive) | – | > 100 µM (inactive) | > 100 µM (inactive) | > 100 µM (inactive) | > 100 µM (inactive) | 50.2 µM (inactive) | > 100 µM (inactive) | > 100 µM (inactive) | – | > 10 µM (inactive) | > 100 µM (inactive) | > 100 | > 100 µM (inactive)
C#CCCCCC#CC1CCCC1C1=CC(=O)c2ccccc21 (stereo unspecified) | 15 µM (inactive) | 6.9 µM (inactive) | 20.3 µM (inactive) | 8.17 µM (inactive) | 6.38 µM (inactive) | 1.98 µM (inactive) | 15.3 µM (inactive) | 6.55 µM (inactive) | 5.3 µM (inactive) | 15.3 µM (inactive) | 4.09 µM (inactive) | 11.2 µM (inactive) | 15.5 µM (inactive) | 7.24 | 4.5 µM (inactive)
CCC(COC(=O)CC[C@@H](NC(=O)C(C)NC(=O)C(C)OC1C(O)C(CO)OC(OCc2ccccc2)C1NC(C)=O)C(N)=O)NC1c2ccccc2Nc2cccc([N+](=O)[O-])c21 (stereo partly specified) | – | > 100 µM (inactive) | > 100 µM (inactive) | > 100 µM (inactive) | > 100 µM (inactive) | > 100 µM (inactive) | > 100 µM (inactive) | > 100 µM (inactive) | 80.2 µM (inactive) | > 100 µM (inactive) | > 100 µM (inactive) | > 100 µM (inactive) | > 100 µM (inactive) | > 100 | > 100 µM (inactive)
COC(=O)C12CC(c3ccccc31)C1C(=O)OC(=O)C12 (stereo unspecified) | – | > 100 µM (inactive) | > 100 µM (inactive) | > 100 µM (inactive) | > 100 µM (inactive) | > 100 µM (inactive) | – | > 100 µM (inactive) | > 100 µM (inactive) | > 100 µM (inactive) | > 100 µM (inactive) | > 100 µM (inactive) | > 100 µM (inactive) | > 100 | > 100 µM (inactive)
CN(C)c1ccc(/C=C/C(=O)O)cc1 | > 100 µM (inactive) | > 100 µM (inactive) | – | > 100 µM (inactive) | > 100 µM (inactive) | > 100 µM (inactive) | > 100 µM (inactive) | > 100 µM (inactive) | 49.3 µM (inactive) | > 100 µM (inactive) | – | > 100 µM (inactive) | > 100 µM (inactive) | > 100 | > 100 µM (inactive)
O=C(CSSCC(=O)Nc1ccc(Br)cc1)Nc1ccc(Br)cc1 | 19.6 µM (inactive) | 15.8 µM (inactive) | 16.7 µM (inactive) | 17.7 µM (inactive) | 16.3 µM (inactive) | 21.6 µM (inactive) | 25.4 µM (inactive) | 21.8 µM (inactive) | 18.1 µM (inactive) | 28.5 µM (inactive) | 19 µM (inactive) | 20.7 µM (inactive) | 15.3 µM (inactive) | 19.6 | 20.9 µM (inactive)
CC(=O)c1ccc(NC(=O)C(=O)C(C#N)CC(C)(C)C=O)cc1 (stereo unspecified) | > 100 µM (inactive) | > 100 µM (inactive) | > 100 µM (inactive) | > 100 µM (inactive) | > 100 µM (inactive) | > 100 µM (inactive) | > 100 µM (inactive) | > 100 µM (inactive) | > 100 µM (inactive) | > 100 µM (inactive) | 68.4 µM (inactive) | > 100 µM (inactive) | > 100 µM (inactive) | > 100 | > 100 µM (inactive)
Cc1cc(NS(=O)(=O)c2ccc(NC(=O)c3cccc4cc5ccccc5nc34)cc2)no1 | 16.7 µM (inactive) | 11.1 µM (inactive) | 35.9 µM (inactive) | 6.87 µM (inactive) | 18 µM (inactive) | 16.1 µM (inactive) | 39.6 µM (inactive) | 14.8 µM (inactive) | 22.3 µM (inactive) | 23.3 µM (inactive) | – | 27.4 µM (inactive) | 6.46 µM (inactive) | 14.7 | 30 µM (inactive)
CCOC(=O)C(N=C(c1ccccc1)c1ccccc1)N(C(=O)OC(C)(C)C)C(=O)OC(C)(C)C (stereo unspecified) | – | > 100 µM (inactive) | > 100 µM (inactive) | > 100 µM (inactive) | > 100 µM (inactive) | 64.3 µM (inactive) | > 100 µM (inactive) | > 100 µM (inactive) | > 100 µM (inactive) | > 100 µM (inactive) | 7.45 µM (inactive) | > 100 µM (inactive) | > 100 µM (inactive) | > 100 | > 100 µM (inactive)
C=C(C(=C)P(=S)(c1ccccc1)c1ccccc1)P(=S)(c1ccccc1)c1ccccc1 | > 100 µM (inactive) | > 100 µM (inactive) | > 100 µM (inactive) | – | > 100 µM (inactive) | 8.75 µM (inactive) | > 100 µM (inactive) | 74.8 µM (inactive) | > 100 µM (inactive) | > 100 µM (inactive) | 2.52 µM (inactive) | > 100 µM (inactive) | > 100 µM (inactive) | > 100 | > 100 µM (inactive)
COc1cc2c(cc1OC)C(Cl)C(c1ccc(Cl)cc1)=C2Cl (stereo unspecified) | 18.6 µM (inactive) | 15.2 µM (inactive) | 19.6 µM (inactive) | 16.8 µM (inactive) | 17.5 µM (inactive) | 9.02 µM (inactive) | 28.5 µM (inactive) | 22 µM (inactive) | 16.5 µM (inactive) | 16.8 µM (inactive) | 12.6 µM (inactive) | – | 27.2 µM (inactive) | 14.5 | 13.3 µM (inactive)
